# In paper PMC9599520, “The Membrane Activity of the Amphibian Temporin B Peptide Analog TB_KKG6K Sheds Light on the Mechanism That Kills Candida albicans” (mSphere, 2022):
# Counter-ions that a name gives are not always drawn. Like-named read-outs stand apart in the source and are kept apart here. Where no end group is shown, it is not given here.
# Key:
# [1] = system: C. albicans cells; experiment: Uptake mechanism (fluorescence microscopy, 4°C or CCCP); assay type: cell-based, Candida albicans; details: 2 μM
# [2] = system: C. albicans (CBS 5982); experiment: microbe, parasite or virus in culture; assay type: cell-based, Candida albicans; details: for IC90: Candida albicans, CBS5982, 24 h, 0.05× PDB, 30°C, 24 h, OD620, read-out: IC90 (inhibitory concentration that reduced growth by ≥90%)
# [3] = system: C. albicans cell membrane; experiment: Membrane depolarization assay with DiSC3(5) dye; assay type: cell-based, Candida albicans; details: 1 × 10^6 cells/mL, 30°C, 60 min, PCγ^C-terminal 32 μM
# [4] = Vesicle leakage assay (ANTS-DPX), all LUVs; assay type: biochemical; details: 32 μM peptide, negative control, 1% Triton X-100 = 100%
# [5] = Vesicle leakage assay, PG; assay type: biochemical; details: PG-LUVs; 32 μM peptide (1.5:1), negative control; 50 μM lipid, 30 min, 37°C; mean ± SD
# [6] = Vesicle leakage assay, PG-PE-CL; assay type: biochemical; details: PG-PE-CL-LUVs; 32 μM peptide (1.5:1), negative control; 50 μM lipid, 30 min, 37°C; mean ± SD
# [7] = Vesicle leakage assay, PC; assay type: biochemical; details: PC-LUVs; 32 μM peptide (1.5:1), negative control; 50 μM lipid, 30 min, 37°C; mean ± SD
# [8] = Vesicle leakage assay, PC-sphingomyelin; assay type: biochemical; details: PC-sphingomyelin-LUVs; 32 μM peptide (1.5:1), negative control; 50 μM lipid, 30 min, 37°C; mean ± SD
# [9] = Vesicle leakage assay, PC-ceramide; assay type: biochemical; details: PC-ceramide-LUVs; 32 μM peptide (1.5:1), negative control; 50 μM lipid, 30 min, 37°C; mean ± SD
# [10] = Vesicle leakage assay, PC-PI; assay type: biochemical; details: PC-PI-LUVs; 32 μM peptide (1.5:1), negative control; 50 μM lipid, 30 min, 37°C; mean ± SD
# [11] = Vesicle leakage assay, PC-PE; assay type: biochemical; details: PC-PE-LUVs; 32 μM peptide (1.5:1), negative control; 50 μM lipid, 30 min, 37°C; mean ± SD
# [12] = Vesicle leakage assay, PC-PS; assay type: biochemical; details: PC-PS-LUVs; 32 μM peptide (1.5:1), negative control; 50 μM lipid, 30 min, 37°C; mean ± SD
# [13] = Vesicle leakage assay, PC-ergosterol; assay type: biochemical; details: PC-ergosterol-LUVs; 32 μM peptide (1.5:1), negative control; 50 μM lipid, 30 min, 37°C; mean ± SD
# [14] = Vesicle leakage assay, PC-PE-ergosterol; assay type: biochemical; details: PC-PE-ergosterol-LUVs; 32 μM peptide (1.5:1), negative control; 50 μM lipid, 30 min, 37°C; mean ± SD
# [15] = Vesicle leakage assay, PC-PS-ergosterol; assay type: biochemical; details: PC-PS-ergosterol-LUVs; 32 μM peptide (1.5:1), negative control; 50 μM lipid, 30 min, 37°C; mean ± SD
# [16] = Vesicle leakage assay, PC-CL; assay type: biochemical; details: PC-CL-LUVs; 32 μM peptide (1.5:1), negative control; 50 μM lipid, 30 min, 37°C; mean ± SD
# [17] = cited from earlier work
compound,measurement,setting,value
"BODIPY-PAFB: P. chrysogenum antifungal protein B (PAFB) conjugated with the green fluorophore BODIPY; control for energy-dependent uptake (LSKFGGECSLKHNTCTYLKGGKNHVVNCGSAANKKCKSDRHHCEYDEHHKRVDCQTPV; cysteine pairing not given here; also: BODIPY label, position not given here; UniProt D0EXD3 35-92, looked up)",uptake into C. albicans cells,"[1]; 30°C, standard condition, 45 min for BODIPY-PAFB",taken up by C. albicans
same,uptake into C. albicans cells with reduced respiration and metabolism,"[1]; 4°C, or 30°C with 100 μM CCCP, 15 min (FITC-TB_KKG6K), 45 min (BODIPY-PAFB)",no internalization
"CGGASCRG [PCγ^C-terminal, negative control peptide CGGASCRG derived from the C-terminal part of Penicillium chrysogenum antifungal protein C (PAFC), reference compound]",fungal growth inhibition,[2]; peptide concentration 0 to 32 μM,No fungal growth inhibition
same,"membrane depolarization, DiSC3(5) fluorescence intensity","[3]; TB analog 0.5, 1, 2 μM, Triton X-100 1% (wt/vol)",No membrane depolarization
same,% Leakage,[4],≤ 2%
same,% Leakage,[5],1.9 ± 1%
same,% Leakage,[6],−1.2 ± 1.6%
same,% Leakage,[7],1.4 ± 1.4%
same,% Leakage,[8],0.6 ± 0.8%
same,% Leakage,[9],1.3 ± 0.2%
same,% Leakage,[10],0.4 ± 0.5%
same,% Leakage,[11],1.4 ± 0.6%
same,% Leakage,[12],0.9 ± 2.7%
same,% Leakage,[13],1.1 ± 0.9%
same,% Leakage,[14],1.7 ± 2.0%
same,% Leakage,[15],2.0 ± 1.4%
same,% Leakage,[16],0.7 ± 0.4%
Temporin B [reference compound],hydrophobicity (hydrophobic amino acids),[17],61%
same,positive net charge,[17]; pH 7,+0.9
"CCCCCCCCN=c1ccn(CCCCCCCCCCn2ccc(=NCCCCCCCC)cc2)cc1 [Octenidine, N,N′-(1,10 decanediyldi-1[4H]-pyridinyl-4-ylidene)-bis-(1-octanamine) dihydrochloride]",IC90,[2]; 1 × 10^4 cells/mL,1000 nM
same,IC90,[2]; 1 × 10^6 cells/mL,2000 nM
Triton X-100 [reference compound],"membrane depolarization, DiSC3(5) fluorescence intensity",[3]; […],fast and sustained increase in fluorescence intensity
